The source of these data is ChEMBL document CHEMBL3588813, “Antifungal Amphiphilic Aminoglycosides” (Medchemcomm, 2014).

Data set [1] concerns Staphylococcus aureus. Put plainly: Antimicrobial activity against methicillin-resistant Staphylococcus aureus ATCC 33591 assessed as inhibition of bacterial growth incubated at 35 degC for 12 to 18 hrs. In kind it is functional.
Another data set has as its system Pseudomonas aeruginosa. Briefly: Antimicrobial activity against Pseudomonas aeruginosa ATCC 27853 assessed as inhibition of bacterial growth incubated at 35 degC for 12 to 18 hrs. In kind it is functional.
The test system of another data set is Escherichia coli. Put plainly: Antimicrobial activity against Escherichia coli ATCC 25922 assessed as inhibition of bacterial growth incubated at 35 degC for 12 to 18 hrs. In kind it is functional.
The subject of data set [2] is Staphylococcus aureus. Put plainly: Antimicrobial activity against Staphylococcus aureus ATCC 25923 assessed as inhibition of bacterial growth incubated at 35 degC for 12 to 18 hrs. In kind it is functional.
For the next data set, the system named is Enterococcus faecalis. Briefly: Antimicrobial activity against vancomycin-resistant Enterococcus faecalis ATCC 1299 assessed as inhibition of bacterial growth incubated at 35 degC for 12 to 18 hrs. In kind it is functional.
Data set [3] concerns Fusarium graminearum. Briefly: Antimicrobial activity against Fusarium graminearum B4-5A using RPMI medium by microbroth dilution assay. In kind it is functional.
In data set [4] the test system is Fusarium graminearum. Put plainly: Antimicrobial activity against Fusarium graminearum B4-5A using potato dextrose broth as growth medium and diluent. In kind it is functional.
Data set [5] is described as follows: Induction of hemolysis in sheep erythrocytes incubated at 37 degC for 60 mins. In kind it is cell-based, Ovis aries, Erythrocyte.
A further data set concerns Rhodotorula mucilaginosa. Put plainly: Antimicrobial activity against Rhodotorula piliminae using potato dextrose broth as growth medium and diluent. In kind it is functional.
The subject of a further data set is Botrytis cinerea. Briefly: Antimicrobial activity against Botrytis cinerea using potato dextrose broth as growth medium and diluent. In kind it is functional.

≈ marks a conversion by molar mass, not a printed value.

For `CCCCCCCCCC(=O)NC[C@H]1O[C@@H](O[C@@H]2[C@@H](O)[C@H](N)C[C@H](N)[C@H]2O[C@H]2O[C@H](CN)[C@@H](O)[C@H](O)[C@H]2N)[C@H](O)[C@@H]1O[C@H]1O[C@@H](CN)[C@@H](O)[C@H](O)[C@H]1N`, the MIC – broadly, the lowest concentration found to suppress growth – in the data set on Staphylococcus aureus [1] is 125 mg/L (≈ 163 µM); in the data set with Pseudomonas aeruginosa it was 16 mg/L (≈ 20.8 µM); in the data set with Escherichia coli, 32 mg/L (≈ 41.7 µM); in the data set with Staphylococcus aureus [2], 16 mg/L (≈ 20.8 µM); in the data set on Enterococcus faecalis, 64 mg/L (≈ 83.3 µM).
As for `CCCCCCCCCCCCCC(=O)NC[C@H]1O[C@@H](O[C@@H]2[C@@H](O)[C@H](N)C[C@H](N)[C@H]2O[C@H]2O[C@H](CN)[C@@H](O)[C@H](O)[C@H]2N)[C@H](O)[C@@H]1O[C@H]1O[C@@H](CN)[C@@H](O)[C@H](O)[C@H]1N`, the MIC with Staphylococcus aureus [1] worked out at 4 mg/L (≈ 4.85 µM); with Pseudomonas aeruginosa, 8 mg/L (≈ 9.71 µM); in the data set on Escherichia coli, 8 mg/L (≈ 9.71 µM); in the data set on Staphylococcus aureus [2], 2 mg/L (≈ 2.43 µM); in the data set on Enterococcus faecalis it was 8 mg/L (≈ 9.71 µM).
In turn, `CCCCCCCCCCC(=O)OCC[C@H]1O[C@H](O[C@@H]2[C@@H](O)[C@H](O[C@H]3O[C@H](CN)[C@@H](O)[C@H](O)[C@H]3N)[C@@H](N)C[C@H]2N)[C@H](O)[C@@H](N)[C@@H]1O` gave an MIC against Fusarium graminearum [3] of 62.5 mg/L (≈ 93.9 µM).
The same measure, in the same setting: with `CCCCCCCCSCC[C@H]1O[C@H](O[C@@H]2[C@@H](O)[C@H](O[C@H]3O[C@H](CN)[C@@H](O)[C@H](O)[C@H]3N)[C@@H](N)C[C@H]2N)[C@H](O)[C@@H](N)[C@@H]1O` the figure was 15.6 mg/L (≈ 24.9 µM); with `Cc1ccc(S(=O)(=O)OCC[C@H]2O[C@H](O[C@@H]3[C@@H](O)[C@H](O[C@H]4O[C@H](CN)[C@@H](O)[C@H](O)[C@H]4O)[C@@H](N)C[C@H]3N)[C@H](O)[C@@H](N)[C@@H]2O)cc1`, over 500 mg/L.
Regarding `CCCCO[C@H]1[C@H](N)[C@@H](O)[C@@H](O[C@@H]2[C@@H](O)[C@H](O[C@H]3O[C@H](CN)[C@@H](O)[C@H](O)[C@H]3N)[C@@H](N)C[C@H]2N)O[C@@H]1C`, the MIC in the data set with Fusarium graminearum [3] and in the data set on Fusarium graminearum [4] was over 500 mg/L throughout.
Regarding `CCCCCCCCCCCCO[C@H]1[C@H](N)[C@@H](O)[C@@H](O[C@@H]2[C@@H](O)[C@H](O[C@H]3O[C@H](CN)[C@@H](O)[C@H](O)[C@H]3N)[C@@H](N)C[C@H]2N)O[C@@H]1C`, the MIC in the data set with Fusarium graminearum [3] and against Fusarium graminearum [4] was over 500 mg/L throughout.
Consider `NC[C@@H]1O[C@H](O[C@H]2[C@@H](O)[C@H](O[C@@H]3[C@@H](O)[C@H](N)C[C@H](N)[C@H]3O[C@H]3O[C@H](CN)[C@@H](O)[C@H](O)[C@H]3N)O[C@@H]2Cn2cc(CNC(=O)c3cc(-c4ccccc4)nc4ccccc34)nn2)[C@H](N)[C@@H](O)[C@@H]1O`, for which the MIC in the data set with Escherichia coli was 32 mg/L (≈ 34.6 µM); with Staphylococcus aureus [2], 8 mg/L (≈ 8.64 µM).
With `CCCCCCC(=O)NC[C@H]1O[C@@H](O[C@@H]2[C@@H](O)[C@H](N)C[C@H](N)[C@H]2O[C@H]2O[C@H](CN)[C@@H](O)[C@H](O)[C@H]2N)[C@H](O)[C@@H]1O[C@H]1O[C@@H](CN)[C@@H](O)[C@H](O)[C@H]1N`, the MIC with Staphylococcus aureus [1] was 125 mg/L (≈ 172 µM); in the data set on Fusarium graminearum [3], 62.5 mg/L (≈ 86.1 µM); with Pseudomonas aeruginosa it was at least 250 mg/L; with Escherichia coli it was 16 mg/L (≈ 22 µM); in the data set with Staphylococcus aureus [2], 2 mg/L (≈ 2.76 µM); in the data set on Enterococcus faecalis it was at least 250 mg/L.
On to `CCCCCCc1cn(C[C@H]2O[C@@H](O[C@@H]3[C@@H](O)[C@H](N)C[C@H](N)[C@H]3O[C@H]3O[C@H](CN)[C@@H](O)[C@H](O)[C@H]3N)[C@H](O)[C@@H]2O[C@H]2O[C@@H](CN)[C@@H](O)[C@H](O)[C@H]2N)nn1`, for which the MIC with Escherichia coli was found to be 32 mg/L (≈ 42.7 µM); in the data set with Staphylococcus aureus [2], 4 mg/L (≈ 5.33 µM).
As for `CCCCCCCCCCCCCCCC(=O)NC[C@H]1O[C@@H](O[C@@H]2[C@@H](O)[C@H](N)C[C@H](N)[C@H]2O[C@H]2O[C@H](CN)[C@@H](O)[C@H](O)[C@H]2N)[C@H](O)[C@@H]1O[C@H]1O[C@@H](CN)[C@@H](O)[C@H](O)[C@H]1N`, the minimum inhibitory concentration (MIC) in the data set on Staphylococcus aureus [1] is 2 mg/L (≈ 2.35 µM); with Fusarium graminearum [3], 125 mg/L (≈ 147 µM); with Pseudomonas aeruginosa it was 4 mg/L (≈ 4.69 µM); in the data set on Escherichia coli it was 4 mg/L (≈ 4.69 µM); with Staphylococcus aureus [2] it was 1 mg/L (≈ 1.17 µM); in the data set with Enterococcus faecalis, 4 mg/L (≈ 4.69 µM). The concentration for an effect of 90% (IC90) (in general, the concentration at which the effect reaches the 90% level) at 1 h in data set [5] is over 1000 mg/L.
On to `CCCCCCCCCCCCCCCCCC(=O)NC[C@H]1O[C@@H](O[C@@H]2[C@@H](O)[C@H](N)C[C@H](N)[C@H]2O[C@H]2O[C@H](CN)[C@@H](O)[C@H](O)[C@H]2N)[C@H](O)[C@@H]1O[C@H]1O[C@@H](CN)[C@@H](O)[C@H](O)[C@H]1N`, for which the MIC was determined as 2 mg/L (≈ 2.27 µM) with Staphylococcus aureus [1]; 125 mg/L (≈ 142 µM) against Fusarium graminearum [3]; 8 mg/L (≈ 9.09 µM) in the data set on Pseudomonas aeruginosa; 4 mg/L (≈ 4.54 µM) in the data set on Escherichia coli; 2 mg/L (≈ 2.27 µM) in the data set with Staphylococcus aureus [2]; 8 mg/L (≈ 9.09 µM) in the data set with Enterococcus faecalis. In data set [5], this compound displayed an IC90 at 1 h of over 1000 mg/L.
Consider `NC[C@@H]1O[C@H](O[C@H]2[C@@H](O)[C@H](O[C@@H]3[C@@H](O)[C@H](N)C[C@H](N)[C@H]3O[C@H]3O[C@H](CN)[C@@H](O)[C@H](O)[C@H]3N)O[C@@H]2CNC(=O)c2cc(-c3ccccc3)nc3ccccc23)[C@H](N)[C@@H](O)[C@@H]1O`, for which the MIC in the data set on Escherichia coli is 8 mg/L (≈ 9.47 µM); with Staphylococcus aureus [2], 4 mg/L (≈ 4.73 µM).
With `CCCCCCCCCCCC(=O)NC[C@H]1O[C@@H](O[C@@H]2[C@@H](O)[C@H](N)C[C@H](N)[C@H]2O[C@H]2O[C@H](CN)[C@@H](O)[C@H](O)[C@H]2N)[C@H](O)[C@@H]1O[C@H]1O[C@@H](CN)[C@@H](O)[C@H](O)[C@H]1N`, the MIC in the data set with Staphylococcus aureus [1] came to 16 mg/L (≈ 20.1 µM); in the data set with Pseudomonas aeruginosa it was 16 mg/L (≈ 20.1 µM); in the data set on Escherichia coli, 16 mg/L (≈ 20.1 µM); in the data set on Staphylococcus aureus [2], 8 mg/L (≈ 10.1 µM); with Enterococcus faecalis, 64 mg/L (≈ 80.4 µM).
On to `NCC[C@H](O)C(=O)N[C@@H]1C[C@H](N)[C@@H](O[C@H]2O[C@H](CN)[C@@H](O)[C@H](O)[C@H]2O)[C@H](O)[C@H]1O[C@H]1O[C@H](CO)[C@@H](O)[C@H](N)[C@H]1O` [AMIKACIN], for which the MIC is 8 mg/L (≈ 13.7 µM) in the data set with Staphylococcus aureus [1]; 0.5 mg/L (≈ 0.854 µM) in the data set on Pseudomonas aeruginosa; 1 mg/L (≈ 1.71 µM) with Escherichia coli; 1 mg/L (≈ 1.71 µM) in the data set on Staphylococcus aureus [2]; at least 250 mg/L with Enterococcus faecalis.
In the data set with Fusarium graminearum [4], `NC[C@H]1O[C@H](O[C@H]2[C@H](O)[C@@H](O[C@H]3O[C@H](CO)[C@@H](O)[C@H](N)[C@H]3O)[C@H](N)C[C@@H]2N)[C@H](N)[C@@H](O)[C@@H]1O` [BEKANAMYCIN] showed an MIC of over 250 mg/L.
Take `NC[C@@H]1O[C@H](O[C@H]2[C@@H](O)[C@H](O[C@@H]3[C@@H](O)[C@H](N)C[C@H](N)[C@H]3O[C@H]3O[C@H](CN)[C@@H](O)[C@H](O)[C@H]3N)O[C@@H]2CO)[C@H](N)[C@@H](O)[C@@H]1O` [FRAMYCETIN]: the MIC with Staphylococcus aureus [1] was 125 mg/L (≈ 203 µM); in the data set with Fusarium graminearum [3], 62.5 mg/L (≈ 102 µM); with Pseudomonas aeruginosa it was 64 mg/L (≈ 104 µM); in the data set on Escherichia coli, 4 mg/L (≈ 6.51 µM); with Staphylococcus aureus [2] it was 1 mg/L (≈ 1.63 µM); in the data set on Enterococcus faecalis, at least 250 mg/L.
`NC[C@@H]1O[C@@H](O[C@H]2[C@H](O)[C@@H](O[C@H]3O[C@H](CO)[C@@H](O)[C@H](N)[C@H]3O)[C@H](N)C[C@@H]2N)[C@@H](O)[C@H](O)[C@H]1O` [KANAMYCIN A] displayed an MIC against Fusarium graminearum [3] of over 500 mg/L.
Turning to `CC1(C)CCC(Cc2ccc(Cl)cc2)C1(O)Cn1cncn1` (configuration not stated) [METCONAZOLE], the minimal inhibitory concentration (MIC) was 15.6 mg/L (≈ 48.8 µM) against Rhodotorula mucilaginosa, 3.9 mg/L (≈ 12.2 µM) against Fusarium graminearum [4] and 7.8 mg/L (≈ 24.4 µM) against Botrytis cinerea.
`CN[C@H](CC(C)C)C(=O)N[C@H]1C(=O)N[C@@H](CC(N)=O)C(=O)N[C@H]2C(=O)N[C@H]3C(=O)N[C@H](C(=O)N[C@H](C(=O)O)c4cc(O)cc(O)c4-c4cc3ccc4O)[C@H](O)c3ccc(c(Cl)c3)Oc3cc2cc(c3O[C@@H]2O[C@H](CO)[C@@H](O)[C@H](O)[C@H]2O[C@H]2C[C@](C)(N)[C@H](O)[C@H](C)O2)Oc2ccc(cc2Cl)[C@H]1O` [VANCOMYCIN]: the MIC with Pseudomonas aeruginosa is at least 250 mg/L; in the data set on Escherichia coli, 125 mg/L (≈ 86.3 µM); with Enterococcus faecalis, 250 mg/L (≈ 173 µM).
